Source: US9980925B2, “Xanthohumol in antiarrythmic applications” (University of South Carolina, priority 2016, dated 2018)
Entries after “also recorded” stand apart in the source; their conditions may differ.

Assays:
Assay type in all cases: cell-based
[1] = system: rat ventricular cardiomyocyte; assay: ROS production from DCF fluorescence in ventricular myocytes incubated with H2DCFDA
Description: A Noran Odyssey XL rapid two-dimensional laser-scanning confocal microscope (Noran Instruments, Madison, Wis.; Zeiss Axiovert TV135) was used with a x63 water-immersion objective, λex=488 nm and λem>515 nm to measure kinetics and subcellular distribution of fluorescence signals according to known protocols. Ca^2+ was imaged after 20- to 30-minute incubation with fluo-4 AM (2 μM). ROS was measured by incubating cells with H2DCFDA (5 μM for 30 minutes), which is cleaved by esterases to form less permeant 2′,7′-dichlorodihydrofluorescein that is then oxidized by free radical compounds to fluorescent 2′,7′-dichlorofluorescein (DCF) as described previously. Fluorescence images of ROS were recorded at low fluorescence intensity and frame rate (about 1 Hz) and required considerable signal averaging (FIG. 1).
Measurements of ROS were also carried out using the oxygen-radical sensitive dye 2′,7′-dichlorofluorescein (DCF) (5 μM). The effect of the xanthohumol was compared with the antioxidant N-acetyl cysteine (10 mM).
ROS production was evaluated from the rate of increase in DCF fluorescence in ventricular myocytes incubated with H2DCFDA.

rat ventricular myocytes [2] = assay: SR Ca2+ content and refilling after caffeine-induced Ca2+ release
Description: (§1) Whole-cell Ca^2+ transients occurring spontaneously or evoked electrically by field stimulation or voltage-clamp depolarizations or by rapid application of caffeine (2.5 mM for 0.5 or 1 second) were measured fluorometrically after incubating the cells in fluo-4 AM (2 μM) for 30 minutes. The dye was excited by 460 nm light from a LED-based illuminator (Prismatix, Modiin (lite, Israel), and Ca^2+-dependent fluorescent light (>500 nm) was detected with a photomultiplier tube that was placed behind a moveable, adjustable diaphragm, which served to limit the area of detection to the voltage-clamped cell. The cellular fluorescence signals (ΔF/F0) were normalized by dividing the changes in whole-cell fluorescence (ΔF) with the baseline fluorescence (F0).
(§2) The cells were incubated with fluo-4 AM for 30 minutes to allow fluorometric imaging of Ca^2+ sparks and measurements of whole-cell Ca^2+ transients. Rapid perfusion of caffeine was used to release, and SR Ca^2+ stores and assesses their size according to known methodology. Xanthohumol was tested in the range from 5 nM to 1 μM and was used routinely either with acute application of 50 nM drug or by incubation of cells in 10 nM xanthohumol-containing solutions for 30 minutes. All cells were first perfused with Tyrode's solution (137 mM NaCl, 10 mM HEPES, 10 mM glucose, 5.4 mM KCl, 2 mM CaCl, 1 mM MgCl) and thereafter were subjected to the following in the absence or presence of xanthohumol:
The aim of this set of experiments was to examine the effect of the xanthohumol on the SR Ca^2+ content and its recirculation. FIG. 14 compares the magnitude of Ca^2+ transients in electrically stimulated cells paced at 0.5 Hz to Ca^2+ transient that was produced when one stimulus was replaced by a rapid application of 2.5 mM caffeine for 1 second. […] It was concluded that xanthohumol suppresses slightly the Ca^2+ content of the SR, but this effect was fully reversed by isoproterenol.
To probe the effect of xanthohumol on recirculation of SR Ca^2+ and its refilling following depletion of its content by caffeine, the rate of recovery of electrically triggered Ca^2+ transients back to control levels was quantified as a measure of refilling of the SR store. […].

rat ventricular myocytes [3] = assay: Global whole-cell Ca2+ transients in field-stimulated cells (Fluo-4 AM); details: for increase in Ca2+-transient peaks following a 30-second train of high-frequency stimulation: 0.5 to 2 Hz
Description: as §1
Effects of xanthohumol on cardiac Ca^2+ signaling were evaluated in enzymatically dispersed ventricular myocytes that were subjected to field stimulation or voltage-clamp depolarizations in the whole-cell, perforated patch configuration to activate Ca^2+ current (ICa) and SR Ca^2+ release.
as §2
(§3) Each experimental condition was typically sustained for 2-8 minutes to achieve equilibration. To avoid cell damage due to continuous light exposure, recordings were generally performed for intervals of only 5-10 seconds, but repeated every minute. Cells challenged with isoproterenol or low K^+ typically developed more abundant spontaneous Ca^2+ sparks and interdispersed irregular whole-cell Ca^2+ transients, especially in the absence of xanthohumol.

rat ventricular myocytes [4] = assay: Ca2+ spark imaging (Fluo-4 epifluorescence)
Description: Ca^2+ sparks (Fluo-4, λex=488 nm) were also measured with the LEICA DMI6000 microscope in the epifluorescence mode but now operating at 60-100 frames/s (FIG. 3, FIG. 4 (panels A-C); FIG. 5, FIG. 6, and FIG. 7); the average baseline fluorescence intensity (F0) was calculated from several frames without indication of spontaneous Ca^2+ signals in the form of sparks or waves. Images were filtered by 2 pixel×2 pixel averaging. The amplitudes of the Ca^2+-dependent cellular fluorescence signals were quantified as ΔF/F0, where ΔF is the change in fluorescence measured within selected regions of interest. The time constant of decay of Ca^2+ transients (Tau) was estimated by approximation with a single exponential.
as §2, §3

rat ventricular myocytes [5] = assay: Ca2+ transients in voltage-clamped cells (Fluo-4 AM)
Description: (§4) Cells were voltage-clamped in the whole-cell perforated patch configuration at a holding potential of −50 or −60 mV and depolarized to +10 mV to activate L-type Ca^2+ current (ICa) and Ca^2+-induced Ca^2+ release using a Dagan amplifier and pClamp software (Clampex 10.2). Borosilicate patch pipettes were prepared using a horizontal pipette puller (Model P-87; Sutter Instruments, Novato, Calif.). […] Rapid applications of 2.5 mM caffeine and pharmacological interventions were used to elucidate the action mechanism of xanthohumol. Most experiments were performed at 35° C. Voltage-clamp experiments testing dose response were performed at both 25° C. and 35° C.
as §1
The effects of xanthohumol on Ca^2+ signaling parameters was compared using concentrations ranging between 1 nM and 1 μM. The experiments were carried out under perforated patch conditions both at room temperature and 35° C. Ventricular myocytes incubated in fluo-4 AM were activated by 100-ms depolarizing pulses from −50 to 10 m versus at room temperature. Ca^2+ current was suppressed by xanthohumol when the concentrations of the drug exceeded 100 nM (FIG. 16, panel A). […] At room temperatures, xanthohumol also slowed the kinetics of relaxation of Ca^2+ transients, as it suppressed its peak, at concentrations exceeding 50 nM (FIG. 16, panels B and C; P<0.001). […]

[6] = molecular target: T1, L-type Ca^2+ current (ICa) (Rattus norvegicus, UniProt P22002); assay: Voltage-clamp recording of L-type Ca2+ current (perforated patch)
T1 construct: enzymatically dispersed ventricular myocytes that were subjected to field stimulation or voltage-clamp depolarizations; endogenous in cells; host or cells: freshly isolated ventricular cardiomyocytes of male Sprague-Dawley rats
T1 sequence (P22002 whole entry, other chains not shown): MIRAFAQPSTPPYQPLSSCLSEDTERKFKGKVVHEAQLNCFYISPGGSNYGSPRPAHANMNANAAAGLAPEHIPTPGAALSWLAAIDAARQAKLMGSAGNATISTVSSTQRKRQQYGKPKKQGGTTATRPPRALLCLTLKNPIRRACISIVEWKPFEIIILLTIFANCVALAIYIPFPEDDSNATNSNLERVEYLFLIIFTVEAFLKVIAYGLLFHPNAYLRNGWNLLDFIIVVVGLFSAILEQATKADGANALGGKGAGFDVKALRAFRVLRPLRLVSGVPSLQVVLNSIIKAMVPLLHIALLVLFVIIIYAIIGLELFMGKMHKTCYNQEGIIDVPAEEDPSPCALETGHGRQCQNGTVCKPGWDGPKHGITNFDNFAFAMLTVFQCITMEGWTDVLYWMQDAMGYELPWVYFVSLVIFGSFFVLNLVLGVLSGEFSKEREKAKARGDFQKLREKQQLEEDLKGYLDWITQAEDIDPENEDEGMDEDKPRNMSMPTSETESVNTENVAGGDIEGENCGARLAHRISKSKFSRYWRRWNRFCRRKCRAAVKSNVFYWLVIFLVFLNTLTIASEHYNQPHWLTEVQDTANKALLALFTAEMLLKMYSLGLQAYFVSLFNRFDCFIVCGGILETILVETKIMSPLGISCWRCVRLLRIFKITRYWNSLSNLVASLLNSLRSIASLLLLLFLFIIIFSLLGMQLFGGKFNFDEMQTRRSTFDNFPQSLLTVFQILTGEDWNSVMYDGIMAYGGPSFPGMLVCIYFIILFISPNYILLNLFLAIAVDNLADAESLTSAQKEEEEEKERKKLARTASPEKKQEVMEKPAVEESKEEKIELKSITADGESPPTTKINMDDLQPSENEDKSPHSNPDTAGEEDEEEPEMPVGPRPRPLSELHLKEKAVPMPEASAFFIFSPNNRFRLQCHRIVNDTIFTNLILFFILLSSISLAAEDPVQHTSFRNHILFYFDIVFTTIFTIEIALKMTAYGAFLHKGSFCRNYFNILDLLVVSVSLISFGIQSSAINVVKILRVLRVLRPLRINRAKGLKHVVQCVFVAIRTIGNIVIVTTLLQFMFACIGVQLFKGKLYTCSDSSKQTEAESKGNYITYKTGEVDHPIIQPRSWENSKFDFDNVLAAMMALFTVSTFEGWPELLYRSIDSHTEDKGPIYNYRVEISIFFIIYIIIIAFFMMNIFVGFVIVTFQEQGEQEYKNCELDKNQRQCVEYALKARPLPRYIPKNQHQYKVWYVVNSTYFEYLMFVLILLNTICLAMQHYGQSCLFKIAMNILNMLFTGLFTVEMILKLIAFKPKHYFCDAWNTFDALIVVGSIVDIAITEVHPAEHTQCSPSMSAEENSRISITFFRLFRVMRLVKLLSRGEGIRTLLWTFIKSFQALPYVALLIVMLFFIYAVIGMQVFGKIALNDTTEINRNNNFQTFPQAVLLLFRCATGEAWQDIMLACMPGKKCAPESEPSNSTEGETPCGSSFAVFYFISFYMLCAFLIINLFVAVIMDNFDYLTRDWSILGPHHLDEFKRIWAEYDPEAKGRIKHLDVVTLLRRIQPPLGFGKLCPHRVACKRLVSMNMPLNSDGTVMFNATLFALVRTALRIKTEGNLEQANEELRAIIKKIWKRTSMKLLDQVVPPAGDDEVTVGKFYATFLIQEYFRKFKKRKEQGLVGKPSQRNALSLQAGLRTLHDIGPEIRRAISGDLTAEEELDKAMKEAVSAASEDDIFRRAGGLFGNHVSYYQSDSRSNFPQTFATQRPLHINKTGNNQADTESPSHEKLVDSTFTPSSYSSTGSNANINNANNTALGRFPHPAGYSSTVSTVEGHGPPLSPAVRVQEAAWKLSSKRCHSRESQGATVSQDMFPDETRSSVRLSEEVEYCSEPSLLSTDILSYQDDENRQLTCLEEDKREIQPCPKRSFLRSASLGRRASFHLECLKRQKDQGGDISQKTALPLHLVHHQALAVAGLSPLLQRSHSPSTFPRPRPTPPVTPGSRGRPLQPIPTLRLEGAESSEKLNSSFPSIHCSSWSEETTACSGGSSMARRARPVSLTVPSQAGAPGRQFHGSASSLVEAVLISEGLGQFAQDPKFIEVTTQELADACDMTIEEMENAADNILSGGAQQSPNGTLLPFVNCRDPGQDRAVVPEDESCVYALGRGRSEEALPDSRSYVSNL
T1 sequence (P54290 25-944 partner limits assumed, other chains not shown): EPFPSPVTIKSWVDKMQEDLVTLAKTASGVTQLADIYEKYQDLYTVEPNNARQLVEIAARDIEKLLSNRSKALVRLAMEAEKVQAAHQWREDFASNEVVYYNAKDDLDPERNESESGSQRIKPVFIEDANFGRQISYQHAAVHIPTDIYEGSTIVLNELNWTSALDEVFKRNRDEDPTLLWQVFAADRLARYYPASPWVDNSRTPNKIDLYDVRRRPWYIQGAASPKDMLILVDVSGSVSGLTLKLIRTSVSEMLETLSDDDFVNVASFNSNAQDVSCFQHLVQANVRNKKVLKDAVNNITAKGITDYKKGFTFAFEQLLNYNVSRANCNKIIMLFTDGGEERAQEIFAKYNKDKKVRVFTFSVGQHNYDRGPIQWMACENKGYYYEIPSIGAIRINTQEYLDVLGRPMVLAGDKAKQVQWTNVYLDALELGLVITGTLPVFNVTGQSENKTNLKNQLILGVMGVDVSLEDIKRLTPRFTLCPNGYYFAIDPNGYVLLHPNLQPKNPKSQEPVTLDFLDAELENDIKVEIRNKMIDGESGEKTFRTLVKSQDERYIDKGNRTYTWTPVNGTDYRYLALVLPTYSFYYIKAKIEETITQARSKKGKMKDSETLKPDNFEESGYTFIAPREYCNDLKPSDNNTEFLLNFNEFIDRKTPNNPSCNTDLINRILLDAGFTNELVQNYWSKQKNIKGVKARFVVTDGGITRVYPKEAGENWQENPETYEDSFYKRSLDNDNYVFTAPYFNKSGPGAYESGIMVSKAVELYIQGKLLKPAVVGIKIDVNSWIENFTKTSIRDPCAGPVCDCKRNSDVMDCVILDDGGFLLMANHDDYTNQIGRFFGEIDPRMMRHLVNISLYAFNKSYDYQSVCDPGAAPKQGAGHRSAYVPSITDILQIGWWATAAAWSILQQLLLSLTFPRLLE
T1 sequence (P54290 945-1091 partner limits assumed, other chains not shown): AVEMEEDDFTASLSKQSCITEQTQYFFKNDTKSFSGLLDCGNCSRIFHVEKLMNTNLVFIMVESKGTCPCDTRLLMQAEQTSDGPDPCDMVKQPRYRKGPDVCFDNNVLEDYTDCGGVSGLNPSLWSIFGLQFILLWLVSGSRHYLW
Description: as §4
The effects of xanthohumol on Ca^2+ signaling parameters was compared using concentrations ranging between 1 nM and 1 μM. The experiments were carried out under perforated patch conditions both at room temperature and 35° C. Ventricular myocytes incubated in fluo-4 AM were activated by 100-ms depolarizing pulses from −50 to 10 m versus at room temperature. Ca^2+ current was suppressed by xanthohumol when the concentrations of the drug exceeded 100 nM (FIG. 16, panel A). […] At room temperatures, xanthohumol also slowed the kinetics of relaxation of Ca^2+ transients, as it suppressed its peak, at concentrations exceeding 50 nM (FIG. 16, panels B and C; P<0.001). […] It was concluded that higher metabolic states of myocytes, induced by higher temperatures and adrenergic stimulation, reduce the inhibitory effects of xanthohumol on Ca^2+ transients.

[7] = isoproterenol 100 nM, 0.75 Hz, 35° C.
[8] = 50-100 nM, 35° C., field-stimulated
[9] = xanthohumol 50-300 nM co-applied with isoproterenol

CC(=O)N[C@@H](CS)C(=O)O [N-acetyl cysteine, reference compound]
low K+-induced increase of the DCF signal ([1]; N-acetyl cysteine 10 mM, low K+): suppressed | effect on DCF signal after washout ([1]; after N-acetyl cysteine 10 mM): washout rapidly reversed the DCF signal

CC(C)NCC(O)c1ccc(O)c(O)c1 (stereo not drawn) [isoproterenol, reference compound]
fraction of the caffeine-releasable Ca2+ pool released by electrical stimulation (rat ventricular myocytes [2]; isoproterenol 100 nM, 0.5 Hz, 35° C.): enhanced | increase of peak of the triggered Ca2+ transient (rat ventricular myocytes [2]; isoproterenol 100 nM, paced at 0.5 Hz): 74.12% | enhancement of rate of relaxation of Ca2+ transients (rat ventricular myocytes [3]; [7]): about 30% | increase in frequency of spontaneous events (rat ventricular myocytes [3]; [7]): 3- to 4 fold | increase in amplitude of the Ca2+ transients (rat ventricular myocytes [3]; isoproterenol 100 nM, electrical stimulation 0.75 Hz, 35° C., P=0.0464): 50%

COc1cc(O)c(CC=C(C)C)c(O)c1C(=O)/C=C/c1ccc(O)cc1 [xanthohumol]
frequency of Ca2+ sparks evoked by withdrawal of extracellular K+ (rat ventricular myocytes [4]; 50 nM): markedly decreased | time to reduction of spark frequency after application (rat ventricular myocytes [4]; acute 10 nM): ≤ 2 min | spontaneous Ca2+ spark frequency (rat ventricular myocytes [4]; acute 10 nM, control cells with high baseline spark frequency, 5.4 mM K+): consistently reduced | spontaneously developed Ca2+ oscillations or sparks (rat ventricular myocytes [4]; incubated 30 minutes in 10 nM, 5.4 mM K+): scarce | frequency of sparks/Ca2+ oscillations on reduction of K+ versus non-incubated cells (rat ventricular myocytes [4]; incubated 30 minutes in 10 nM, K+-free solutions, p<0.005): significantly lower | modulatory effect on the uptake kinetics (Tau) following Ca2+ release by caffeine (rat ventricular myocytes [2]; in presence of xanthohumol (50 nM)): completely suppressed | fractional Ca2+ release (ΔFStim/ΔFCaff) (rat ventricular myocytes [2]; xanthohumol 50 nM, 0.5 Hz, 35° C.): not influenced; also recorded: not significantly reduced | rate of refilling of the SR (rat ventricular myocytes [2]; xanthohumol 50 nM, after caffeine depletion): significantly reduced | ΔF/F signal of caffeine-induced Ca2+ release (total Ca2+ content of the SR) (rat ventricular myocytes [2]; xanthohumol 50 nM, caffeine 2.5 mM 1 second, 0.5 Hz, 35° C.): significantly reduced | reduction of peak of the triggered Ca2+ transient (rat ventricular myocytes [2]; xanthohumol 50 nM, paced at 0.5 Hz): 22.66% | diastolic Ca2+ levels (rat ventricular myocytes [2]; xanthohumol 50 nM, statistically insignificant): slight increase | Ca2+ transients (rat ventricular myocytes [5]; 10 nM, room temperature): significantly suppressed | concentrations above which significant effects on ΔF/F or rate of decay occurred (rat ventricular myocytes [5]; 35° C.): exceeding 300 nM | concentrations above which relaxation of Ca2+ transients was slowed and peak suppressed (rat ventricular myocytes [5]; room temperature, P<0.001): exceeding 50 nM | effect on ICa ([6]; 10 nM, room temperature): little or no effect | Ca2+ current ([6]; 100-300 nM, 35° C.): significantly increased | concentration above which Ca2+ current was suppressed ([6]; room temperature): exceeded 100 nM | effect on DCF signal after washout ([1]; after xanthohumol 50 nM): persisted even after washout | low K+ solution-induced increase of the DCF signal ([1]; xanthohumol 50 nM, low K+ 5.4→1.5 mM): effectively suppressed | slope of ROS-dependent DCF fluorescence signal (baseline ROS production) ([1]; xanthohumol 50 nM, uncompensated and background-compensated signal): reduced the slope | time to suppression of aberrant cellular Ca2+ transients (rat ventricular myocytes [3]; 30 nM, electrically stimulated 1 Hz, 25° C.): < 10 s | peak ΔF/F0, F0, or decay time constant (Tau) of electrically triggered Ca2+ transients (rat ventricular myocytes [3]; 100 nM, 35° C.): without modifying | spontaneously triggered beats induced by rapid electrical stimulation (rat ventricular myocytes [3]; 100 nM, 35° C.): suppressed significantly | frequency of spontaneously triggered Ca2+ oscillations (rat ventricular myocytes [3]; 1.5 mM K+, xanthohumol 50 nM): markedly reduced | concentrations over which Tau was significantly reduced (rat ventricular myocytes [3]; 0.5 Hz, 35° C. (FIG. 12 C)): over 300 nM | toxic concentrations (rat ventricular myocytes [3]; 35° C., electrically stimulated cells): about 1 mM | increase in Ca2+-transient peaks following a 30-second train of high-frequency stimulation (rat ventricular myocytes [3]; 50-100 nM xanthohumol, n=4): 12.14%±2.662 | normalized ΔF or F0 (rat ventricular myocytes [3]; 50-100 nM, 35° C., 0.5 Hz, statistically insignificant): slight increase | aberrant secondary Ca2+ release events (rat ventricular myocytes [3]; [8]): blocks | amplitude of electrically stimulated cellular Ca2+ transients (rat ventricular myocytes [3]; [8]): without decreasing | time for effects of xanthohumol to start to develop (rat ventricular myocytes [3]; continuous recordings (FIG. 9)): less than 10 seconds | Tau of relaxation (rat ventricular myocytes [3]; range of 10-300 nM, 35° C.): without much change | isoproterenol-triggered spontaneous events (rat ventricular myocytes [3]; [9]): strong suppression | various parameters of Ca2+ transients (ΔF/F0, F0, Tau) (rat ventricular myocytes [3]; [9]): without having a significant effect | increase in Ca2+-transient peaks following a 30-second train of high-frequency stimulation (rat ventricular myocytes [3]; xanthohumol and isoproterenol (100 nM)): 5.002%±0.6667
